Reference: patent US7582694B2, “Antimicrobial lubricant for wood fiber-plastic composites” (Lonza, Inc., priority 2002, dated 2009)

Assays:
C. globosum = assay: agar plate method, inhibition of fungus growth; type: cell-based; conditions: for percent inhibition (retardation) of the fungal growth, C. globosum: aqueous solution
Procedure: (§1) The efficacy of aqueous solutions of alkyldimethylbenzyl ammonium lauryl sulfate and didecyldimethyl ammonium lauryl sulfate to inhibit fungus growth was evaluated by the agar plate method known in the art. Also tested were two commercially known biocides: didecyldimethyl ammonium chloride (Bardac® 2080) and alkyldimethylbenzyl ammonium chloride (Barquat® MB-80).
(§2) The test data are reported as a percent inhibition (retardation) of the fungal growth.

G. trabeum = assay: agar plate method, inhibition of fungus growth; type: cell-based; conditions: for percent inhibition (retardation) of the fungal growth, G. trabeum: aqueous solution
Procedure: as §1, §2

P. placenta = assay: agar plate method, inhibition of fungus growth; type: cell-based; conditions: for percent inhibition (retardation) of the fungal growth, P. placenta: aqueous solution
Procedure: as §1, §2

T. versicolor = assay: agar plate method, inhibition of fungus growth; type: cell-based; conditions: for percent inhibition (retardation) of the fungal growth, T. versicolor: aqueous solution
Procedure: as §1, §2

[1] = system: brown-rot fungus G. trabeum; assay: standard soil block test (American Wood Preservation Association E10) on extruded composites; conditions: extruded samples containing the salt vs conventional lubricant control; 22 weeks G. trabeum
Procedure: The efficacy of extruded samples containing alkyldimethylbenzyl ammonium lauryl sulfate or didecyldimethyl ammonium lauryl sulfate to inhibit fungal growth was evaluated by the standard soil block test method (American Wood Preservation Association E10) known in the art. The biocide effectiveness is determined by % weight loss in wood component of the tested samples. The sample blocks (13 mm×14 mm×14 mm) were exposed to the brown-rot fungus G. trabeum for 22 weeks, with four replicates per treatment.

[2] = Chaetomium globosum, read-out: percent inhibition (retardation) of the fungal growth, C. globosum
[3] = Gloeophyllum trabeum, read-out: percent inhibition (retardation) of the fungal growth, G. trabeum
[4] = read-out: percent inhibition (retardation) of the fungal growth, P. placenta
[5] = Trametes versicolor, read-out: percent inhibition (retardation) of the fungal growth, T. versicolor

“alkyldimethylbenzyl ammonium lauryl sulfate” was tested, and the “percent inhibition (retardation) of the fungal growth, C. globosum” value (“percent inhibition (retardation) … C. globosum” for short) (C. globosum; 50 ppm) was 64.5%, the “percent inhibition (retardation) … C. globosum” value (C. globosum; 500 ppm) was 75.6% and the “percent inhibition (retardation) of the fungal growth, G. trabeum” value (“percent inhibition (retardation) … G. trabeum” below) (G. trabeum; 50 ppm) was 51.7%. The “percent inhibition (retardation) … G. trabeum” value (G. trabeum; 500 ppm) was 82.3%, the “percent inhibition (retardation) of the fungal growth, P. placenta” value (from here on “percent inhibition (retardation) … P. placenta”) (P. placenta; 50 ppm) was 83.0% and the “percent inhibition (retardation) … P. placenta” value (P. placenta; 500 ppm) was 86.6%. For the same compound, the “percent inhibition (retardation) of the fungal growth, T. versicolor” value (“percent inhibition … T. versicolor” below) (T. versicolor; 50 ppm) was 32.2%, the “percent inhibition … T. versicolor” value (T. versicolor; 500 ppm) was 72.9% and the “weight loss compared with control samples” value [1] was “significantly lower weight loss than the control samples”.

With “alkyldimethylbenzyl ammonium chloride [reference compound]” the “percent inhibition (retardation) … C. globosum” value (C. globosum; 50 ppm) was 63.8%, the “percent inhibition (retardation) … C. globosum” value (C. globosum; 500 ppm) was 81.8% and the “percent inhibition (retardation) … G. trabeum” value (G. trabeum; 50 ppm) was 82.1%. For the same compound, the “percent inhibition (retardation) … G. trabeum” value (G. trabeum; 500 ppm) was 89.0%, the “percent inhibition (retardation) … P. placenta” value (P. placenta; 50 ppm) was 86.8% and the “percent inhibition (retardation) … P. placenta” value (P. placenta; 500 ppm) was 87.5%. The “percent inhibition … T. versicolor” value (T. versicolor; 50 ppm) was 55.0% and the “percent inhibition … T. versicolor” value (T. versicolor; 500 ppm) was 85.0%.

Didecyldimethyl ammonium lauryl sulfate was tested, and the “percent inhibition (retardation) … C. globosum” value (C. globosum; 50 ppm) was 68.0%, the “percent inhibition (retardation) … C. globosum” value (C. globosum; 500 ppm) was 78.7% and the “percent inhibition (retardation) … G. trabeum” value (G. trabeum; 50 ppm) was 58.0%. For the same compound, the “percent inhibition (retardation) … G. trabeum” value (G. trabeum; 500 ppm) was 80.8%, the “percent inhibition (retardation) … P. placenta” value (P. placenta; 50 ppm) was 82.6% and the “percent inhibition (retardation) … P. placenta” value (P. placenta; 500 ppm) was 86.0%. The “percent inhibition … T. versicolor” value (T. versicolor; 50 ppm) was 44.0%, the “percent inhibition … T. versicolor” value (T. versicolor; 500 ppm) was 81.3% and the “weight loss compared with control samples” value [1] was “significantly lower weight loss than the control samples”.

Work on `CCCCCCCCCC[N+](C)(C)CCCCCCCCCC` [didecyldimethyl ammonium chloride, reference compound] yielded an inhibition at 50 ppm (C. globosum; [2]) of 68.2%, an inhibition at 500 ppm (C. globosum; [2]) of 74.3% and an inhibition at 50 ppm (G. trabeum; [3]) of 78.4%. It also gave an inhibition at 500 ppm (G. trabeum; [3]) of 82.4%, an inhibition at 50 ppm (P. placenta; [4]) of 88.4% and an inhibition at 500 ppm (P. placenta; [4]) of 89.2%. The inhibition at 50 ppm (T. versicolor; [5]) was 36.8% and the inhibition at 500 ppm (T. versicolor; [5]) was 80.7%.
